Data: patent publication US20250171420A1 (Monte Rosa Therapeutics, Inc., priority 2022, published 2025)
Where two headings read alike, the source gives them in different places.

What was measured:
[1] = system: GP2D cell line; experiment: Growth inhibition, CyQUANT Direct Cell Proliferation Assay, GP2D; format: cell-based
Method: (§1) SKCO1, LS180, and LS174T cell lines were purchased from ATCC. CW2 cell line was purchased from Riken. GP2D cell line was purchased from Sigma/ECACC. All cell lines were cultured in manufacturer's recommended media at 37° C., 5% CO2. Briefly, cells were suspended in 200 μL of media and seeded at 300 to 1,800 cells per well in tissue culture treated 96-well plates with black walls and clear bottom. Plates were incubated overnight and initial (To) read was performed the following day using CyQUANT Direct Cell Proliferation Assay Kit (Thermo Fisher Scientific) according to manufacturer's protocol. All compounds were solubilized in DMSO and prepared at 3-fold serial dilution, using 9 points starting at 30 μM as highest concentration, administered to cells and incubated for 120 to 168 hours, at which point CyQUANT assay measurement was performed using Acumen Cellista instrument (Ex/Em 480/520 nm). Media-only wells were used as blank, and 0.3% DMSO was used as DMSO-treated cell control. Growth inhibition (percent response) was calculated using the following formula in Excel: “=if ([Compound treated Day N]>[Untreated Day 0, AVG], ([Compound treated Day N]−[Untreated Day 0, AVG])/([Untreated Day N]−[Untreated Day 0, AVG])*100, ([Compound Treated Day N]−[Untreated Day 0, AVG])/([Untreated Day 0, AVG])*100)”. GI50 is the response corresponding to the 50% of untreated control.
(§2) GI50 data are reported in Tables 4a, 4b, 4c, 4d, and 4e for compounds in Table 1. In Tables 4a, 4b, 4c, 4d, and 4e below, According to the code, A represents a GI50 value of ≤0.1 μM, B represents a GI50 value>0.1 μM and ≤1 μM, C represents an GI50 value>1 μM.

[2] = target: T1, CK1α (Homo sapiens, UniProt P48729); experiment: CK1α NanoBit Assay (HiBiT-tagged CSNK1A1, HEK293 clonal lines); format: cell-based; settings: HEK293 HiBiT-CSNK1A1/LgBiT cells, 24 h incubation
T1 construct: HEK293 clonal lines with CRISPR KI HiBiT tag on CSNK1A1
Summary of the method: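 HEK293 clones carrying a CRISPR knock-in HiBiT tag on CSNK1A1 and stably expressing LgBiT are treated with compound for 24 hours at 37° C, 5% CO2, then read by luminescence. Response is normalized as 100*(S−N)/(P−N) against plate negative and positive controls, and DC50 values are derived.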

[3] = target: CRBN/DDB1 (Homo sapiens, UniProt Q96SW2); experiment: HTRF binding assay (displacement of Cy5-thalidomide probe from CRBN/DDB1); settings: CRBN/DDB1 2.5 nM, Cy5-Thalidomide 100 nM, 30 min; geometric mean; read-out: HTRF_Thali_Disp_DR_geo_IC50
Summary of the method: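 Compounds in a 10-point threefold dilution series were incubated 30 min at ambient temperature with 2.5 nM CRBN/DDB1, 100 nM Cy5-thalidomide probe and terbium anti-His donor (HEPES/NaCl/TCEP/EDTA/Tween20 buffer). IC50 came from 4-parameter fits of the 665/620 nm HTRF ratio; Ki used Cheng-Prusoff on geometric-mean IC50.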

[4] = system: CW2 cell line; experiment: Growth inhibition, CyQUANT Direct Cell Proliferation Assay, CW2; format: cell-based; settings: Homo sapiens
Method: as §1, §2

[5] = system: LS174T cell line; experiment: Growth inhibition, CyQUANT Direct Cell Proliferation Assay, LS174T; format: cell-based; settings: Homo sapiens
Method: as §1, §2

[6] = system: SKCO1 cell line; experiment: Growth inhibition, CyQUANT Direct Cell Proliferation Assay, SKCO1; format: cell-based; settings: Homo sapiens
Method: as §1, §2

[7] = system: LS180 cell line; experiment: Growth inhibition, CyQUANT Direct Cell Proliferation Assay, LS180; format: cell-based; settings: Homo sapiens
Method: as §1, §2

[8] = GP2D, 120 to 168 hours, read-out: GP2D GI50
[9] = CW-2, CW2, 120 to 168 hours, read-out: CW2 GI50
[10] = 120 to 168 hours, read-out: LS174T GI50
[11] = SK-CO-1, SKCO1, 120 to 168 hours, read-out: SKCO1 GI50
[12] = LS180, 120 to 168 hours, read-out: LS180 GI50
[13] = SK-CO-1, read-out: SKCO1 GI50 (μM)
[14] = LS180, read-out: LS180 GI50 (μM)

T1 sequence (P48729 whole entry): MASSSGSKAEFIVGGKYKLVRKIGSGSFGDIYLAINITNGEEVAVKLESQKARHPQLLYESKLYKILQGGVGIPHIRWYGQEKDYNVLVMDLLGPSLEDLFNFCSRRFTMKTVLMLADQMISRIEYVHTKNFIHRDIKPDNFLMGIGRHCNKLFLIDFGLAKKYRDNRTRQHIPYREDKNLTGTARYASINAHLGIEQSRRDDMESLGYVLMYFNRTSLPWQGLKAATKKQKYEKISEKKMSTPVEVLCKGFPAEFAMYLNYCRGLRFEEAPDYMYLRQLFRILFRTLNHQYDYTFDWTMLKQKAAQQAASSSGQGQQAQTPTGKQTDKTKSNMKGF
T1 sequence (Q96SW2 whole entry, further chain): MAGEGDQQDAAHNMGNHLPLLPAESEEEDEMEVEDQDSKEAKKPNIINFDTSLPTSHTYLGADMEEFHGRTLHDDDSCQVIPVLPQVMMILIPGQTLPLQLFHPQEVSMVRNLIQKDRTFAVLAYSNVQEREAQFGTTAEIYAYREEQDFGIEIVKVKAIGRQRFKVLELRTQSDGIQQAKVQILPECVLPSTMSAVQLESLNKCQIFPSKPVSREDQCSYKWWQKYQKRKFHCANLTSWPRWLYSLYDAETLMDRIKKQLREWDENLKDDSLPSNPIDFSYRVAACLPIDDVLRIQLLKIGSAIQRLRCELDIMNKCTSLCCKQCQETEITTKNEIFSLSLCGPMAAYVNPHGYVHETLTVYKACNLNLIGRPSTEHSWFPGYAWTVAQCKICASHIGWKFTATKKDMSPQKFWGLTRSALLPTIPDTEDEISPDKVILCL
T1 sequence (Q16531 2-1140 partner limits assumed): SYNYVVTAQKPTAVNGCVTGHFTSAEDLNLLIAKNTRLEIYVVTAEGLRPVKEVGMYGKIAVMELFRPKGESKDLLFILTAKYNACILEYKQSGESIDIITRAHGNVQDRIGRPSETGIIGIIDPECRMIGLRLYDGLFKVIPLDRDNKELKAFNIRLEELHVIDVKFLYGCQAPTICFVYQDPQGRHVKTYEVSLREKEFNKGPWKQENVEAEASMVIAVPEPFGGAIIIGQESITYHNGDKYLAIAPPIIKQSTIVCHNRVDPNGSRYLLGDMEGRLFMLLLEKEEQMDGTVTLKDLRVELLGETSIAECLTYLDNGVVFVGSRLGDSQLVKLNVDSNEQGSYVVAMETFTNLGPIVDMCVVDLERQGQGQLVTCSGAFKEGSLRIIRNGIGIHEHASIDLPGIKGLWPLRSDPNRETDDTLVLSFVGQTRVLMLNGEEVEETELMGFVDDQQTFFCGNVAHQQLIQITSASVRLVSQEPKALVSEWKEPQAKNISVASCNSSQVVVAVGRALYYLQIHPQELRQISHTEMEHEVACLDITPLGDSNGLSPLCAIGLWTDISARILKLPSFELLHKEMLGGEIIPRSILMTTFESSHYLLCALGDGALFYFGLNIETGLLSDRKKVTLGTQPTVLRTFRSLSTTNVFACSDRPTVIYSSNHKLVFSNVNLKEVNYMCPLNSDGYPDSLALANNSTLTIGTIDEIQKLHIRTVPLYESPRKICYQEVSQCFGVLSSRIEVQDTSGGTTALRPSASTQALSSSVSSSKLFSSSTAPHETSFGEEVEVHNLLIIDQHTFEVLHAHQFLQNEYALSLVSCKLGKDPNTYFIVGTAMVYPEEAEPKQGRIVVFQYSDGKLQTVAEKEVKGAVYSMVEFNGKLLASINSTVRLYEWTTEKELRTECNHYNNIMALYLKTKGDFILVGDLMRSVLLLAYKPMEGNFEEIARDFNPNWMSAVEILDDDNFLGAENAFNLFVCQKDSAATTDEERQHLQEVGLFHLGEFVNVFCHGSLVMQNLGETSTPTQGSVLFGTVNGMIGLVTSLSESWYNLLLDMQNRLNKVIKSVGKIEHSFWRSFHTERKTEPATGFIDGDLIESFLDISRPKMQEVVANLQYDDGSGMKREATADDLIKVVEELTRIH
Chain of CRBN/DDB1 (Q96SW2 whole entry, species assumed): as the sequence (Q96SW2 whole entry, further chain) above
Chain of CRBN/DDB1 (Q16531 whole entry partner, species assumed): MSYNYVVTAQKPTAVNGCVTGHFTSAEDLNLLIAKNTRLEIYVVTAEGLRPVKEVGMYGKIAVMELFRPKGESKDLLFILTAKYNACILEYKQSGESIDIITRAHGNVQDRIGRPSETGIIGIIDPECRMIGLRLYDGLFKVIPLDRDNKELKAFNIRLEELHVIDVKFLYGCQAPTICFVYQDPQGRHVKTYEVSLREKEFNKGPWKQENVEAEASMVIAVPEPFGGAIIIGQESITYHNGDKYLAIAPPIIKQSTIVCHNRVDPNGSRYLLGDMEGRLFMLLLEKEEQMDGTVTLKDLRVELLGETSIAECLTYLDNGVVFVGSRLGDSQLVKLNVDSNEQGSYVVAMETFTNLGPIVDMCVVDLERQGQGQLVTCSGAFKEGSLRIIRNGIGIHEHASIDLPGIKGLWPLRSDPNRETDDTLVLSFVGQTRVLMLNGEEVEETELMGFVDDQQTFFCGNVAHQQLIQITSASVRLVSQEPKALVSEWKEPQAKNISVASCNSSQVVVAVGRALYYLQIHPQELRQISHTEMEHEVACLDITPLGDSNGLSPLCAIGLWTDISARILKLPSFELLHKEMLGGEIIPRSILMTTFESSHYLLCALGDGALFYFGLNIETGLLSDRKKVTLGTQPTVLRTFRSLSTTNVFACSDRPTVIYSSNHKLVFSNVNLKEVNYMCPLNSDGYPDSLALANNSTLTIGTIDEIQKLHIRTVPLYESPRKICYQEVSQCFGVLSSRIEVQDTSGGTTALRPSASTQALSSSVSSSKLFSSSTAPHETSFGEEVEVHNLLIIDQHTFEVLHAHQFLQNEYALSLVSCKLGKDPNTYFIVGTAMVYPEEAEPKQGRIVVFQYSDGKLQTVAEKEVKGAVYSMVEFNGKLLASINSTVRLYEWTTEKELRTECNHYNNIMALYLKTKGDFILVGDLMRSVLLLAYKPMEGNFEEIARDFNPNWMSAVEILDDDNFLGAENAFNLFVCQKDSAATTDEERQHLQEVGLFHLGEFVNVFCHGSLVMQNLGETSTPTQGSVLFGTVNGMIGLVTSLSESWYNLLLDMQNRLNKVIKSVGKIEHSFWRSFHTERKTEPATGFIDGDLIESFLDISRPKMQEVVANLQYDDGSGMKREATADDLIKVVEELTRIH

| Structure (SMILES) | DC50 [2] [µM] | IC50 [3] [nM] | further results |
| --- | --- | --- | --- |
| CC1CN(C(=O)Nc2ccc3c(c2)CN(C2CCC(=O)NC2=O)C3=O)c2ccccc21 (stereo in doubt) [Compound 283, (3R)—N-(2-(2,6-dioxopiperidin-3-yl)-1-oxoisoindolin-5-yl)-3-methylindoline-1-carboxamide] | < 0.1 | 100 to 1000 | GI50 [1, 8]: < 0.1 µM; GI50 [4, 9]: 0.1 to 1 µM; GI50 [5, 10]: 0.1 to 1 µM; GI50 [6, 11]: < 0.1 µM; GI50 [7, 12]: 0.1 to 1 µM |
| Cc1ccc2c(c1)N(C(=O)Nc1ccc3c(c1)CN(C1CCC(=O)NC1=O)C3=O)CC2 (centres unmarked) [Compound 190, N-(2-(2,6-dioxopiperidin-3-yl)-1-oxoisoindolin-5-yl)-6-methylindoline-1-carboxamide] | < 0.1 | 100 to 1000 | GI50 ([1]; GP2d, read-out: GP2D GI50 (μM)): 0.1 to 1 µM; GI50 ([4]; CW-2, read-out: CW2 GI50 (μM)): 0.1 to 1 µM; GI50 ([5]; read-out: LS174T GI50 (μM)): 0.1 to 1 µM; GI50 [6, 13]: 0.1 to 1 µM; GI50 [7, 14]: 0.1 to 1 µM |
| O=C1CCC(N2Cc3cc(NC(=O)N4CCc5ccc(F)cc54)ccc3C2=O)C(=O)N1 (centres unmarked) [Compound 186, N-(2-(2,6-dioxopiperidin-3-yl)-1-oxoisoindolin-5-yl)-6-fluoroindoline-1-carboxamide] | < 0.1 | 100 to 1000 | GI50 ([1]; GP2d, read-out: GP2D GI50 (μM)): < 0.1 µM; GI50 ([4]; CW-2, read-out: CW2 GI50 (μM)): < 0.1 µM; GI50 ([5]; read-out: LS174T GI50 (μM)): < 0.1 µM; GI50 [6, 13]: < 0.1 µM; GI50 [7, 14]: < 0.1 µM |
| O=C1CCC(N2Cc3cc(NC(=O)N4CCc5ccccc54)ccc3C2=O)C(=O)N1 (centres unmarked) [Compound 103, N-(2-(2,6-dioxopiperidin-3-yl)-1-oxoisoindolin-5-yl)indoline-1-carboxamide] | < 0.1 | 100 to 1000 | GI50 [1, 8]: < 0.1 µM; GI50 [4, 9]: 0.1 to 1 µM; GI50 [5, 10]: 0.1 to 1 µM; GI50 [6, 11]: < 0.1 µM; GI50 [7, 12]: 0.1 to 1 µM |
| Cc1cccc2c1CCN2C(=O)Nc1ccc2c(c1)CN(C1CCC(=O)NC1=O)C2=O (centres unmarked) [Compound 198, N-(2-(2,6-dioxopiperidin-3-yl)-1-oxoisoindolin-5-yl)-4-methylindoline-1-carboxamide] | < 0.1 | 100 to 1000 | GI50 [1, 8]: < 0.1 µM; GI50 [4, 9]: < 0.1 µM; GI50 [5, 10]: 0.1 to 1 µM; GI50 [6, 11]: < 0.1 µM; GI50 [7, 12]: 0.1 to 1 µM |
| COC[C@@H]1Cc2c(C3CC3)cccc2N1C(=O)Nc1ccc2c(c1)CN(C1CCC(=O)NC1=O)C2=O (stereo partly drawn) [Compound 339, (2S)-4-cyclopropyl-N-(2-(2,6-dioxopiperidin-3-yl)-1-oxoisoindolin-5-yl)-2-(methoxymethyl)indoline-1-carboxamide] | < 0.1 | 100 to 1000 | GI50 [1, 8]: 0.1 to 1 µM; GI50 [4, 9]: 0.1 to 1 µM; GI50 [5, 10]: 0.1 to 1 µM; GI50 [6, 11]: 0.1 to 1 µM; GI50 [7, 12]: > 1 µM |
| Cc1ccc2c(c1)CCN2C(=O)Nc1ccc2c(c1)CN(C1CCC(=O)NC1=O)C2=O (centres unmarked) [Compound 214, N-(2-(2,6-dioxopiperidin-3-yl)-1-oxoisoindolin-5-yl)-5-methylindoline-1-carboxamide] | < 0.1 | 100 to 1000 | GI50 [1, 8]: < 0.1 µM; GI50 [4, 9]: < 0.1 µM; GI50 [5, 10]: 0.1 to 1 µM; GI50 [6, 11]: < 0.1 µM; GI50 [7, 12]: 0.1 to 1 µM |
| O=C1CCC(N2Cc3cc(NC(=O)N4CCc5cc(F)ccc54)ccc3C2=O)C(=O)N1 (centres unmarked) [Compound 178, N-(2-(2,6-dioxopiperidin-3-yl)-1-oxoisoindolin-5-yl)-5-fluoroindoline-1-carboxamide] | < 0.1 | 100 to 1000 | GI50 ([1]; GP2d, read-out: GP2D GI50 (μM)): 0.1 to 1 µM; GI50 ([4]; CW-2, read-out: CW2 GI50 (μM)): 0.1 to 1 µM; GI50 ([5]; read-out: LS174T GI50 (μM)): 0.1 to 1 µM; GI50 [6, 13]: 0.1 to 1 µM; GI50 [7, 14]: 0.1 to 1 µM |
| Cc1cc2c(cc1C)N(C(=O)Nc1ccc3c(c1)CN(C1CCC(=O)NC1=O)C3=O)CC2 (centres unmarked) [Compound 171, N-(2-(2,6-dioxopiperidin-3-yl)-1-oxoisoindolin-5-yl)-5,6-dimethylindoline-1-carboxamide] | < 0.1 | 100 to 1000 |  |
| COC[C@@H]1Cc2cc(C(F)(F)F)ncc2N1C(=O)Nc1ccc2c(c1)CN(C1CCC(=O)NC1=O)C2=O (stereo partly drawn) [Compound 294, (2S)—N-(2-(2,6-dioxopiperidin-3-yl)-1-oxoisoindolin-5-yl)-2-(methoxymethyl)-5-(trifluoromethyl)-2,3-dihydro-1H-pyrrolo[2,3-c]pyridine-1-carboxamide] | < 0.1 | 100 to 1000 |  |
| O=C1CCC(N2Cc3cc(NC(=O)N4c5ccccc5C[C@H]4CN4CCC4)ccc3C2=O)C(=O)N1 (stereo partly drawn) [Compound 315, (2S)-2-(azetidin-1-ylmethyl)-N-(2-(2,6-dioxopiperidin-3-yl)-1-oxoisoindolin-5-yl)indoline-1-carboxamide] | 0.1 to 1 | 100 to 1000 |  |
| O=C1CCC(N2Cc3cc(NC(=O)N4CC5(CCC5)c5ccccc54)ccc3C2=O)C(=O)N1 (centres unmarked) [Compound 188] | < 0.1 | 100 to 1000 |  |
| O=C1CCC(N2Cc3cc(NC(=O)N4CC5(CCOC5)c5ccccc54)ccc3C2=O)C(=O)N1 (centres unmarked) [Compound 317, N-(2-(2,6-dioxopiperidin-3-yl)-1-oxoisoindolin-5-yl)-4,5-dihydro-2H-spiro[furan-3,3′-indoline]-1′-carboxamide] | < 0.1 | 100 to 1000 |  |
| COC[C@@H]1Cc2cc(C(F)(F)F)ccc2N1C(=O)Nc1ccc2c(c1)CN(C1CCC(=O)NC1=O)C2=O (stereo partly drawn) [Compound 318, (2S)—N-(2-(2,6-dioxopiperidin-3-yl)-1-oxoisoindolin-5-yl)-2-(methoxymethyl)-5-(trifluoromethyl)indoline-1-carboxamide] | < 0.1 | 100 to 1000 |  |
| O=C1CCC(N2Cc3cc(NC(=O)N4CCc5ccc(C6CCOC6)cc54)ccc3C2=O)C(=O)N1 (centres unmarked) [Compound 364, N-(2-(2,6-dioxopiperidin-3-yl)-1-oxoisoindolin-5-yl)-6-(tetrahydrofuran-3-yl)indoline-1-carboxamide] | 0.1 to 1 | 100 to 1000 |  |
| COCC1c2ccc(C(F)F)cc2CN1C(=O)Nc1ccc2c(c1)CN(C1CCC(=O)NC1=O)C2=O (centres unmarked) [Compound 299, 5-(difluoromethyl)-N-(2-(2,6-dioxopiperidin-3-yl)-1-oxoisoindolin-5-yl)-1-(methoxymethyl)isoindoline-2-carboxamide] | < 0.1 | 100 to 1000 |  |
| CN1CCN(c2ccc3c(c2)CCN3C(=O)Nc2ccc3c(c2)CN(C2CCC(=O)NC2=O)C3=O)CC1 (centres unmarked) [Compound 351, N-(2-(2,6-dioxopiperidin-3-yl)-1-oxoisoindolin-5-yl)-5-(4-methylpiperazin-1-yl)indoline-1-carboxamide] | 0.1 to 1 | 100 to 1000 |  |
| C[C@@H]1Cc2c(F)cccc2N1C(=O)Nc1ccc2c(c1)CN(C1CCC(=O)NC1=O)C2=O (stereo partly drawn) [Compound 354, (2R)—N-(2-(2,6-dioxopiperidin-3-yl)-1-oxoisoindolin-5-yl)-4-fluoro-2-methylindoline-1-carboxamide] | < 0.1 | 100 to 1000 |  |
| COC[C@@H]1Cc2c(cccc2C(F)(F)F)N1C(=O)Nc1ccc2c(c1)CN(C1CCC(=O)NC1=O)C2=O (stereo partly drawn) [Compound 325, (2S)—N-(2-(2,6-dioxopiperidin-3-yl)-1-oxoisoindolin-5-yl)-2-(methoxymethyl)-4-(trifluoromethyl)indoline-1-carboxamide] | < 0.1 | 100 to 1000 |  |
| O=C1CCC(N2Cc3cc(NC(=O)N4CC5(CCCC5)c5ccccc54)ccc3C2=O)C(=O)N1 (centres unmarked) [Compound 192, N-(2-(2,6-dioxopiperidin-3-yl)-1-oxoisoindolin-5-yl)spiro[cyclopentane-1,3′-indoline]-1′-carboxamide] | < 0.1 | 100 to 1000 |  |
